Source: PubChem BioAssay (NCI)
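Step 1: Grow cells in 96-well plates. Step 2: Expose to compound for 48 hours at 5 concentrations. Step 3: Interpolate endpoints linearly; if unreached, use highest concentration. Here, GI50 denotes the concentration required for 50% inhibition of growth. TGI is the concentration that stops growth completely.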

What was measured:
Test in all cases: NCI-60 cell line screen, 48 h
NCI-H23 lung = test system: NCI-H23 lung
NCI-H460 lung = test system: NCI-H460 lung
NCI-H522 lung = test system: NCI-H522 lung
NCI/ADR-RES ovarian = test system: NCI/ADR-RES ovarian
OVCAR-3 ovarian = test system: OVCAR-3 ovarian
OVCAR-4 ovarian = test system: OVCAR-4 ovarian
OVCAR-5 ovarian = test system: OVCAR-5 ovarian
OVCAR-8 ovarian = test system: OVCAR-8 ovarian
PC-3 prostate = test system: PC-3 prostate
RPMI-8226 leukemia = test system: RPMI-8226 leukemia
RXF 393 renal = test system: RXF 393 renal
SF-268 CNS = test system: SF-268 CNS
SF-295 CNS = test system: SF-295 CNS
SF-539 CNS = test system: SF-539 CNS
SK-MEL-2 melanoma = test system: SK-MEL-2 melanoma
SK-MEL-28 melanoma = test system: SK-MEL-28 melanoma
SK-MEL-5 melanoma = test system: SK-MEL-5 melanoma
SK-OV-3 ovarian = test system: SK-OV-3 ovarian
SN12C renal = test system: SN12C renal
SNB-19 CNS = test system: SNB-19 CNS
SNB-75 CNS = test system: SNB-75 CNS
SR leukemia = test system: SR leukemia
SW-620 colon = test system: SW-620 colon
T-47D breast = test system: T-47D breast
TK-10 renal = test system: TK-10 renal
U251 CNS = test system: U251 CNS
UACC-62 melanoma = test system: UACC-62 melanoma
UO-31 renal = test system: UO-31 renal

CCN1C(=O)N(CC)C2C1NN=C1SC(c3ccccc3)=CC(=O)N12 (stereo not given)
GI50 (NCI-H23 lung): 1220 nM | TGI (NCI-H23 lung): > 100000 nM | GI50 (NCI-H460 lung): 394 nM | TGI (NCI-H460 lung): > 36900 nM | GI50 (NCI-H522 lung): 228 nM | TGI (NCI-H522 lung): 772 nM | GI50 (NCI/ADR-RES ovarian): 385 nM | TGI (NCI/ADR-RES ovarian): > 100000 nM | GI50 (OVCAR-3 ovarian): 320 nM | TGI (OVCAR-3 ovarian): 1590 nM | GI50 (OVCAR-4 ovarian): 15700 nM | TGI (OVCAR-4 ovarian): > 100000 nM | GI50 (OVCAR-5 ovarian): 921 nM | TGI (OVCAR-5 ovarian): > 100000 nM | GI50 (OVCAR-8 ovarian): 1470 nM | TGI (OVCAR-8 ovarian): > 20400 nM | GI50 (PC-3 prostate): 515 nM | TGI (PC-3 prostate): > 100000 nM | GI50 (RPMI-8226 leukemia): 580 nM | TGI (RPMI-8226 leukemia): > 54300 nM | GI50 (RXF 393 renal): 198 nM | TGI (RXF 393 renal): 538 nM | GI50 (SF-268 CNS): 3050 nM | TGI (SF-268 CNS): > 100000 nM | GI50 (SF-295 CNS): 389 nM | TGI (SF-295 CNS): > 24900 nM | GI50 (SF-539 CNS): 375 nM | TGI (SF-539 CNS): 3030 nM | GI50 (SK-MEL-2 melanoma): 481 nM | TGI (SK-MEL-2 melanoma): > 100000 nM | GI50 (SK-MEL-28 melanoma): 872 nM | TGI (SK-MEL-28 melanoma): > 100000 nM | GI50 (SK-MEL-5 melanoma): 493 nM | TGI (SK-MEL-5 melanoma): 41800 nM | GI50 (SK-OV-3 ovarian): 545 nM | TGI (SK-OV-3 ovarian): > 56100 nM | GI50 (SN12C renal): 596 nM | TGI (SN12C renal): > 100000 nM | GI50 (SNB-19 CNS): 730 nM | TGI (SNB-19 CNS): > 100000 nM | GI50 (SNB-75 CNS): 210 nM | GI50 (SR leukemia): 140 nM | TGI (SR leukemia): > 100000 nM | GI50 (SW-620 colon): 349 nM | TGI (SW-620 colon): > 100000 nM | GI50 (T-47D breast): 286 nM | TGI (T-47D breast): > 100000 nM | GI50 (TK-10 renal): 53500 nM | TGI (TK-10 renal): > 100000 nM | GI50 (U251 CNS): 546 nM | TGI (U251 CNS): > 100000 nM | GI50 (UACC-62 melanoma): 343 nM | TGI (UACC-62 melanoma): > 100000 nM | GI50 (UO-31 renal): 605 nM | TGI (UO-31 renal): > 100000 nM
